Experimental findings from patent publication US5382596A, “Substituted 2-aminotetralins” (priority 1993, dated 1995) are described below.

Assay [1] addresses Dopamine D2 receptor (Bos taurus, UniProt P20288). In words: biochemical. The assay is classed as binding, bovine. To be noted: for Ki: bovine caudate membranes, 3H-Spiperone, RT, 75 min, read-out: D2 K1. The procedure:
(§1) Membranes were prepared using a Brinkmann Polytron and collected by centrifugation. Membrane sources were bovine caudate (D2,D1) or rat cortex (α2). The membranes were washed, resuspended, and incubated at 37° C. for 30 min. in either the presence (rat cortex) of 1 μ/ml adenosine deaminase or absence (bovine caudate) of 0.1 μ/ml adenosine deaminase. Membranes were centrifuged, washed once and frozen at -70° C. until used. Immediately before use, the membranes were thawed, washed once, and resuspended to a final concentration of 0.5-2 mg/ml. Assays were initiated by addition of membranes. For D2 and D1 assays, the radioligands and conditions used were ^3 H-Spiperone (RT, 75 min.) and ^3 H-SCH23390 (37° C., 15 min.), respectively. For α2 assays, ^3 H-PAC (RT, 30 min.) was used Assays were terminated by filtration using a Brandel cell harvester over Whatman GF/B filters that had been pretreated with 0.1% polyethylenimine. […]

The target of the next assay is Dopamine D1 receptor (Bos taurus, UniProt Q95136). In words: biochemical. The assay is classed as binding, bovine. To be noted: bovine caudate membranes, 3H-SCH23390, 37° C., 15 min; read-out: D1 K1. Here is the method:
as §1

Assay [2] relates to denervated supersensitive postsynaptic dopamine receptors. In words: In vivo functional test: contralateral circling in rats with unilateral 6-hydroxydopamine lesions of the substantia nigra. Set-up: species or system rat. The conditions noted are these: contralateral circling, rats, unilateral 6-hydroxydopamine lesion. An excerpt: Dopamine agonists produce contralateral circling behavior in rats in which unilateral lesions of the substantial nigra are made by prior injection of 6-hydroxydopamine. The circling is thought to be mediated by stimulation of denervated supersensitive postsynaptic dopamine receptors (Marshall and Ungerstedt, 1977, Eur. J. Pharmacol., 41:361-367).

Assay [3] has as its target dopamine D2 receptor (Mus musculus, UniProt P61168). In words: biochemical. The assay is classed as biochemical. The conditions noted are these: for EC50: concentration that produces 50% of the maximal inhibition of twitch, mouse vas deferens, read-out: D2 A50. The procedure:
Vasa deferentia from male BALB/C mice weighing approximately 30 g were removed and placed in isolated organ baths containing magnesium-free modified Krebs-Henseleit solution which was gassed with 95% O2 and 5% CO2 and maintained at 37° C. Tissues were set up under resting tension of 0.5 g and stimulated electrically at 60 volts, 0.1 Hz and 1 msec duration to produce a series of twitch responses. Tissues were pretreated with propranolol (1 μM) to block β-adrenoceptors, idazoxan (3 μM) to block α2 -adrenoceptors receptors, and ascorbic acid (100 μM) for 60 min before the addition of test compound.

A further assay concerns the target T1, adrenergic α2 receptor (Rattus norvegicus, UniProt P22909).
T1 sequence (P22909 1-465): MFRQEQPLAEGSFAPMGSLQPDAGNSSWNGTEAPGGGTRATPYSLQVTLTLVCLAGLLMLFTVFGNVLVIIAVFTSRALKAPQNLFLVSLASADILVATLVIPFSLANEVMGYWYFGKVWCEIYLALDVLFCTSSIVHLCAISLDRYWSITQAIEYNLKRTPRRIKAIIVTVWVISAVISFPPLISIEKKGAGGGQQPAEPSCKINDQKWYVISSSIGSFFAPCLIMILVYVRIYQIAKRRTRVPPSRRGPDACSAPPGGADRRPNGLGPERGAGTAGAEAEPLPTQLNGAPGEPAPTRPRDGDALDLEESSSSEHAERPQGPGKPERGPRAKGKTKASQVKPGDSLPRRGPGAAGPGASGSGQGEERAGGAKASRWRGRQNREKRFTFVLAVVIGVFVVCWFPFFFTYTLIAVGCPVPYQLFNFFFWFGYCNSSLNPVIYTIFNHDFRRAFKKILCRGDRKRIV
In words: Adrenergic α2 in vitro functional test (rat vas deferens, inhibition of twitch). The assay is classed as biochemical. The conditions noted are these: concentration that produces 50% of the maximal inhibition of twitch; rat vas deferens; read-out: a2 A50. Here is the method: Vasa deferentia from male Sprague-Dawley rats weighing between 150-250 g were removed and placed in isolated organ baths containing Krebs-Henseleitsolution under a resting tension of 1 g. All other set up conditions were identical to those used for the mouse was deferens. Tissues were pretreated with propranolol (1 μM), ascorbic acid (100 μM) and the α1 -adrenergic antagonist prazosin (0.3 or 1 μM) for 60 min before the addition of test compound.

Molecules are shown by their SMILES.

Sequence of Dopamine D1 receptor (Q95136 whole entry): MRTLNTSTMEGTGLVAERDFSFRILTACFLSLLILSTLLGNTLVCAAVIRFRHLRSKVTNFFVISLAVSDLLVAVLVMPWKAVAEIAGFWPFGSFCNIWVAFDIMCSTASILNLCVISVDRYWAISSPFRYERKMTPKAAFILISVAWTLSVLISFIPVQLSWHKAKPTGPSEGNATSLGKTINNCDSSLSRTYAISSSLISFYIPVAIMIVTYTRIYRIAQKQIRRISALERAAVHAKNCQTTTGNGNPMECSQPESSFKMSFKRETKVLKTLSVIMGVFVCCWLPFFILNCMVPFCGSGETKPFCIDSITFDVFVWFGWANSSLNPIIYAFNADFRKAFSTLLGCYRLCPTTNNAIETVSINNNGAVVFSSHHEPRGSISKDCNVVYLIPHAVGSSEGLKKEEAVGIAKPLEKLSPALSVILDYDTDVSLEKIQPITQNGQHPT
Sequence of Dopamine D2 receptor (P20288 whole entry): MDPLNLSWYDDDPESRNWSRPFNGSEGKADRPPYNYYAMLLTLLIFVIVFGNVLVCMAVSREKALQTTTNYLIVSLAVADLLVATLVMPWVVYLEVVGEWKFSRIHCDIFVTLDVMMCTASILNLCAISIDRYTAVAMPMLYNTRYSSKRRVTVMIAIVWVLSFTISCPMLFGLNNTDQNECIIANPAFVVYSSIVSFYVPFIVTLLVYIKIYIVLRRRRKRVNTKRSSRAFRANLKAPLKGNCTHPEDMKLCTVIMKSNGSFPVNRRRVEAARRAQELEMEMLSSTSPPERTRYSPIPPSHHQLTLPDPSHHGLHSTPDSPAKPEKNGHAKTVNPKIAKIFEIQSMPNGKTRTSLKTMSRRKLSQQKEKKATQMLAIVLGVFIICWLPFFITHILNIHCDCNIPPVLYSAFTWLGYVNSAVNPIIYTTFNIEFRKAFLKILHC
Sequence of dopamine D2 receptor (P61168 whole entry): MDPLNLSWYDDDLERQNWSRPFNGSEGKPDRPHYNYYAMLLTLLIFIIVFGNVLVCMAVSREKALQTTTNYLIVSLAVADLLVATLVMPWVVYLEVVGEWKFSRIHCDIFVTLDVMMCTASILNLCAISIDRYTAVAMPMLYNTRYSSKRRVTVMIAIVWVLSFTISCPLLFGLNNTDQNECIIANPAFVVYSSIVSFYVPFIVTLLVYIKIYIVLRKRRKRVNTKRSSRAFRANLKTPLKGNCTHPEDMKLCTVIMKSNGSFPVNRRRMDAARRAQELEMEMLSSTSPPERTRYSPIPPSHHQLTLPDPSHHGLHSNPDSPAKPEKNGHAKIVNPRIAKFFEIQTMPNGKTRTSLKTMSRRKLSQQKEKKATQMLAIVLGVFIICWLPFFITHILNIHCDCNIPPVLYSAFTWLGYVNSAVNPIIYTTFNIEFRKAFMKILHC

By ED50 is commonly meant the dose at which the effect has come halfway, by size or by number of responders. The low end stands for greater potency, the high end for weaker potency. With `CCCN(CCC1CCOC1)[C@H]1CCc2c(ccc(O)c2O)C1` (stereo partly shown) [Example 14], at Dopamine D2 receptor [1], the “Selectivity Ratio (D1 K1/D2 K1)” value turned out to be 34 and the Ki worked out at 195 nM. For the same compound, the Ki at Dopamine D1 receptor stood at 6610 nM. In addition, in assay [2], the 50% effective dose (ED50) was found to be 0.030 µmol/kg. Besides, at dopamine D2 receptor [3], the “Specificity Ratio (a2 A50/D2 A50)” value is reported as 71 and the EC50 was determined as 0.209 nM. The EC50 on adrenergic α2 receptor worked out at 14.8 nM.
For `CCCN(CC1CCOC1)[C@H]1CCc2c(ccc(O)c2O)C1` (stereo partly shown) [Example 15], on Dopamine D2 receptor [1], the “Selectivity Ratio (D1 K1/D2 K1)” value was found to be 1 and the Ki came to 1100 nM. Moreover, the Ki at Dopamine D1 receptor was 1100 nM. In assay [2], this compound returned an ED50 of 0.009 µmol/kg. In addition, at dopamine D2 receptor [3], the “Specificity Ratio (a2 A50/D2 A50)” value is 118 and the EC50 stood at 0.141 nM. The EC50 at adrenergic α2 receptor turned out to be 16.6 nM.
On to `CCCN(CCOC1CCCC1)[C@H]1CCc2c(O)cccc2C1` [Example 16], for which the “Selectivity Ratio (D1 K1/D2 K1)” value at Dopamine D2 receptor [1] stood at 129. Also, the Ki on Dopamine D2 receptor [1] was 62 nM; on Dopamine D1 receptor it was 7940 nM. Besides, the ED50 in assay [2] is 0.090 µmol/kg. Besides, the “Specificity Ratio (a2 A50/D2 A50)” value at dopamine D2 receptor [3] is over 19500. The figures for the EC50 on dopamine D2 receptor [3] and at adrenergic α2 receptor were 0.513 nM and over 10000 nM, respectively.
Consider `CCCN(CCOC1CC1)[C@H]1CCc2c(O)cccc2C1` [Example 17], for which, at Dopamine D2 receptor [1], the “Selectivity Ratio (D1 K1/D2 K1)” value came out at 21 and the Ki was 468 nM. For the same compound, the Ki on Dopamine D1 receptor is 9770 nM. The ED50 in assay [2] worked out at 0.009 µmol/kg. Also, on dopamine D2 receptor [3], the “Specificity Ratio (a2 A50/D2 A50)” value was over 17000 and the EC50 amounted to 0.589 nM. Moreover, the EC50 at adrenergic α2 receptor is over 10000 nM.
As to `CCCN(CCOC1CCC1)[C@H]1CCc2c(O)cccc2C1` [Example 18], on Dopamine D2 receptor [1], the “Selectivity Ratio (D1 K1/D2 K1)” value amounted to 45 and the Ki was 200 nM. For the same compound, the Ki at Dopamine D1 receptor is 8910 nM. This compound registered an ED50 in assay [2] of 0.020 µmol/kg. Further, at dopamine D2 receptor [3], the “Specificity Ratio (a2 A50/D2 A50)” value is listed as over 14800 and the EC50 is 0.676 nM. Besides, the EC50 on adrenergic α2 receptor is over 10000 nM.
Turning to `CCCN(CCC1CCCO1)[C@H]1CCc2c(O)cccc2C1` (stereo partly shown) [Example 19], on Dopamine D2 receptor [1], the “Selectivity Ratio (D1 K1/D2 K1)” value was 14 and the Ki amounted to 110 nM. The Ki at Dopamine D1 receptor turned out to be 1510 nM. The ED50 in assay [2] came to 0.020 µmol/kg. On dopamine D2 receptor [3], the “Specificity Ratio (a2 A50/D2 A50)” value came out at 6310 and the EC50 was 0.275 nM. Further, the EC50 at adrenergic α2 receptor is 1740 nM.
Consider `CCCN(CC1CCCCO1)[C@H]1CCc2c(O)cccc2C1` (stereo partly shown) [Example 20], for which the “Selectivity Ratio (D1 K1/D2 K1)” value on Dopamine D2 receptor [1] came to 7. Also, the Ki came out at 1070 nM at Dopamine D2 receptor [1] and 7080 nM on Dopamine D1 receptor. Also, the ED50 in assay [2] amounted to 0.030 µmol/kg. Besides, the “Specificity Ratio (a2 A50/D2 A50)” value on dopamine D2 receptor [3] was determined as 191. Also, the EC50 at dopamine D2 receptor [3] was 1 nM; on adrenergic α2 receptor, 190 nM.
Consider `CCCN(CC1CCOC1)[C@H]1CCc2c(O)cccc2C1.Cl` (stereo partly drawn) [Example 21, (6S)-5,6,7,8-tetrahydro-6-[[(tetrahydro-3-furanyl)methyl]propylamino]-1-naphthalenol, hydrochloride], for which, at Dopamine D2 receptor [1], the “Selectivity Ratio (D1 K1/D2 K1)” value is recorded as 24 and the Ki came to 151 nM. The Ki on Dopamine D1 receptor is 3630 nM. The compound further displayed an ED50 in assay [2] of 0.009 µmol/kg. For the same compound, on dopamine D2 receptor [3], the “Specificity Ratio (a2 A50/D2 A50)” value is reported as 282 and the EC50 amounted to 0.977 nM. Also, the EC50 on adrenergic α2 receptor is 275 nM.
On to `CCCN(CC1CCCO1)[C@H]1CCc2c(O)cccc2C1` (stereo partly shown) [Example 22], for which, on Dopamine D2 receptor [1], the “Selectivity Ratio (D1 K1/D2 K1)” value is reported as 11 and the Ki worked out at 1510 nM. Besides, the Ki on Dopamine D1 receptor amounted to 16200 nM. The same compound showed an ED50 in assay [2] of 0.030 µmol/kg. Also, at dopamine D2 receptor [3], the “Specificity Ratio (a2 A50/D2 A50)” value stood at 1620 and the EC50 was 2.19 nM. Besides, the EC50 at adrenergic α2 receptor was determined as 3550 nM.
With `CCCN(CCC1CCCCO1)[C@H]1CCc2c(O)cccc2C1` (stereo partly shown) [Example 23], at Dopamine D2 receptor [1], the “Selectivity Ratio (D1 K1/D2 K1)” value came to 68. Also, the results for the Ki at Dopamine D2 receptor [1] and on Dopamine D1 receptor were 110 nM and 7410 nM, respectively. Also, the ED50 in assay [2] is 0.010 µmol/kg. In addition, at dopamine D2 receptor [3], the “Specificity Ratio (a2 A50/D2 A50)” value is given as over 22900. Also, the EC50 on dopamine D2 receptor [3] was 0.437 nM; at adrenergic α2 receptor, over 10000 nM.
